Test results reported in ChEMBL document CHEMBL4602732, “Optimizing Pyrazolopyrimidine Inhibitors of Calcium Dependent Protein Kinase 1 for Treatment of Acute and Chronic Toxoplasmosis” (J Med Chem, 2020).

Columns and labels:
MDR1 = test: Efflux ratio of apparent permeability across basolateral to apical side over apical to basolateral side in MDCK2-MDR1 cells at 2 uM measured after 150 mins by LC-MS/MS analysis; type: ADME, cell-based, Canis lupus familiaris; conditions: dog, MDCK-MDR1
[1] = target: Proto-oncogene tyrosine-protein kinase Src (Homo sapiens, UniProt P12931); test: Inhibition of human Src expressed in Escherichia coli BL21 using Abltide peptide as substrate incubated for 20 to 40 mins by ELISA
Sequence of Proto-oncogene tyrosine-protein kinase Src (P12931 2-536 limits assumed): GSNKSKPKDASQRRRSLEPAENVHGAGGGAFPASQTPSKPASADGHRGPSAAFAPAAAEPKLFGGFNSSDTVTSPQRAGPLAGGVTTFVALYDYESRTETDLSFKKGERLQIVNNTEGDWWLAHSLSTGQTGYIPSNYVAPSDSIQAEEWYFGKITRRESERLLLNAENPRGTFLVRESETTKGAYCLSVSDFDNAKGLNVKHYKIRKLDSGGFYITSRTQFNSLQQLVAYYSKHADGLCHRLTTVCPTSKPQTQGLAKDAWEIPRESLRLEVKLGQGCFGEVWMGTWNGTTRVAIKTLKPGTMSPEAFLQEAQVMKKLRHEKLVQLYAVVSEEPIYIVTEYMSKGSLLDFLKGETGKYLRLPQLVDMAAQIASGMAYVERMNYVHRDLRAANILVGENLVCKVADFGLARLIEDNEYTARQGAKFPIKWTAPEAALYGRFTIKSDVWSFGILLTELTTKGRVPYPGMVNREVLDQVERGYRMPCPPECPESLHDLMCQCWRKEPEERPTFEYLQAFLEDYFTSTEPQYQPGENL

Toxoplasma gondii [2] = test: Antiparasitic activity against Toxoplasma gondii type III CTG tachyzoites infected in HFF assessed as reduction in parasite growth; type: functional, organism-based
[3] = Oral bioavailability in CD1 mouse at 10 mg/kg administered via gavage by LC-MS/MS analysis; type: ADME, organism-based; conditions: in vivo
[4] = Clearance in human hepatocytes assessed per million cells at 1 uM by LC-MS/MS analysis; type: ADME, cell-based, Hepatocyte
Toxoplasma gondii [5] = test: Antiparasitic activity against 2F clone of type 1 Toxoplasma gondii RH tachyzoites expressing beta-galactosidase infected in HFF assessed as reduction in parasite growth measured after 72 hrs by chlorophenol Red-beta-D-galactopyranoside substrate based assay; type: functional, organism-based
[6] = AUC in CD1 mouse at 3 mg/kg, iv or 10 mg/kg, po administered via gavage by LC-MS/MS analysis; type: ADME, organism-based; conditions: in vivo
[7] = system: Src (human) versus Toxoplasma gondii CDPK1; test: Selectivity ratio of IC50 for inhibition of human Src expressed in Escherichia coli BL21 to IC50 for inhibition of Toxoplasma gondii full-length wild-type C-terminal His-tagged CDPK1 expressed in Escherichia coli BL21(DE3)V2RpAcYc-LIC+LamP; type: toxicity; conditions: read-out: Ratio IC50
[8] = Protein binding in mouse brain assessed as unbound fraction; type: ADME, tissue-based
[9] = Kinetic solubility of the compound in pH 7.4 phosphate buffer measured after 24 hrs by UV-HPLC analysis; type: physicochemical; conditions: pH 7.4, 24 h
[10] = Cytotoxicity against human CMEC/D3 cells assessed as cell growth at 20 uM measured after 72 hrs by cellTiter 96 AQueous non-radioactive cell proliferation assay relative to control; type: cell-based, hCMEC/D3; conditions: read-out: Activity
[11] = Cytotoxicity against MDCK cells assessed as cell growth at 20 uM measured after 72 hrs by cellTiter 96 AQueous non-radioactive cell proliferation assay relative to control; type: cell-based, Canis lupus familiaris; conditions: dog, read-out: Activity
[12] = Protein binding in mouse plasma assessed as unbound fraction at 2 uM measured after 4 hrs by LC-MS/MS analysis; type: ADME, cell-free
[13] = Intrinsic clearance in human liver microsomes at 10 uM preincubated for 10 mins followed by NADPH addition by LC-MS/MS analysis; type: ADME, Microsome; conditions: read-out: CLH
Toxoplasma gondii [14] = test: Antiparasitic activity against type 2 Toxoplasma gondii ME49 tachyzoites infected in HFF assessed as reduction in parasite growth; type: functional, organism-based
[15] = Cytotoxicity against HFF monolayers assessed as cell growth measured after 72 hrs by luciferase reporter gene assay relative to control; type: cell-based; conditions: human, read-out: Activity
LCK = LCK (Homo sapiens, UniProt P06239); test: Inhibition of wild-type human partial length LCK (R207 to P509 residues) expressed in bacterial expression system at 10 uM by Kinomescan method relative to control
Sequence of LCK (P06239 whole entry, the tested form may be a part): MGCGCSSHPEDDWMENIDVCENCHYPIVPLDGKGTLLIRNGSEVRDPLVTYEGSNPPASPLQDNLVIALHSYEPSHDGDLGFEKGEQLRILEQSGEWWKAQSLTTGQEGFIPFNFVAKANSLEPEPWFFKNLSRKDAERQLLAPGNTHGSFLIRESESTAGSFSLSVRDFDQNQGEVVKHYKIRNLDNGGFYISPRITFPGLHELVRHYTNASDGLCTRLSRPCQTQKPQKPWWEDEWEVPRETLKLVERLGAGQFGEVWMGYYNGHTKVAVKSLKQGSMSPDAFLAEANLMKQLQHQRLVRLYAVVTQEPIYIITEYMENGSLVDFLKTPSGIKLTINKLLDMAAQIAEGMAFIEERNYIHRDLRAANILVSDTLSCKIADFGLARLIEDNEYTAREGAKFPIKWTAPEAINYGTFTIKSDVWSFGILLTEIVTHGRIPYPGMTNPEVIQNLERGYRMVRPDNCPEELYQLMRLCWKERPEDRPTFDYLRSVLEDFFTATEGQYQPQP

[16] = Cytotoxicity against human HepG2 cells assessed as cell growth at 20 uM measured after 72 hrs by cellTiter 96 AQueous non-radioactive cell proliferation assay relative to control; type: cell-based; conditions: read-out: Activity
[17] = Cytotoxicity against human Caco2 cells assessed as cell growth at 20 uM measured after 72 hrs by cellTiter 96 AQueous non-radioactive cell proliferation assay relative to control; type: cell-based, Caco-2; conditions: read-out: Activity
[18] = Apparent permeability across apical to basolateral side in MDCK2-MDR1 cells at 2 uM measured after 150 mins by LC-MS/MS analysis; type: ADME, cell-based, Canis lupus familiaris; conditions: dog, mdck-mdr1, […]
[19] = Half life in CD1 mouse at 3 mg/kg, iv or 10 mg/kg, po administered via gavage by LC-MS/MS analysis; type: ADME, organism-based; conditions: in vivo
[20] = Ratio of drug level in central nervous system to plasma in CD1 mouse at 10 mg/kg, po administered via gavage measured after 8 hrs by LC-MS/MS analysis; type: ADME, organism-based, CNS/Plasma; conditions: central nervous system and plasma
[21] = target: Voltage-gated inwardly rectifying potassium channel KCNH2 (Homo sapiens, UniProt Q12809); test: Inhibition of human ERG expressed in CHOK1 cells by patch-clamp electrophysiology assay; type: cell-based, CHO-K1
Sequence of Voltage-gated inwardly rectifying potassium channel KCNH2 (Q12809 whole entry): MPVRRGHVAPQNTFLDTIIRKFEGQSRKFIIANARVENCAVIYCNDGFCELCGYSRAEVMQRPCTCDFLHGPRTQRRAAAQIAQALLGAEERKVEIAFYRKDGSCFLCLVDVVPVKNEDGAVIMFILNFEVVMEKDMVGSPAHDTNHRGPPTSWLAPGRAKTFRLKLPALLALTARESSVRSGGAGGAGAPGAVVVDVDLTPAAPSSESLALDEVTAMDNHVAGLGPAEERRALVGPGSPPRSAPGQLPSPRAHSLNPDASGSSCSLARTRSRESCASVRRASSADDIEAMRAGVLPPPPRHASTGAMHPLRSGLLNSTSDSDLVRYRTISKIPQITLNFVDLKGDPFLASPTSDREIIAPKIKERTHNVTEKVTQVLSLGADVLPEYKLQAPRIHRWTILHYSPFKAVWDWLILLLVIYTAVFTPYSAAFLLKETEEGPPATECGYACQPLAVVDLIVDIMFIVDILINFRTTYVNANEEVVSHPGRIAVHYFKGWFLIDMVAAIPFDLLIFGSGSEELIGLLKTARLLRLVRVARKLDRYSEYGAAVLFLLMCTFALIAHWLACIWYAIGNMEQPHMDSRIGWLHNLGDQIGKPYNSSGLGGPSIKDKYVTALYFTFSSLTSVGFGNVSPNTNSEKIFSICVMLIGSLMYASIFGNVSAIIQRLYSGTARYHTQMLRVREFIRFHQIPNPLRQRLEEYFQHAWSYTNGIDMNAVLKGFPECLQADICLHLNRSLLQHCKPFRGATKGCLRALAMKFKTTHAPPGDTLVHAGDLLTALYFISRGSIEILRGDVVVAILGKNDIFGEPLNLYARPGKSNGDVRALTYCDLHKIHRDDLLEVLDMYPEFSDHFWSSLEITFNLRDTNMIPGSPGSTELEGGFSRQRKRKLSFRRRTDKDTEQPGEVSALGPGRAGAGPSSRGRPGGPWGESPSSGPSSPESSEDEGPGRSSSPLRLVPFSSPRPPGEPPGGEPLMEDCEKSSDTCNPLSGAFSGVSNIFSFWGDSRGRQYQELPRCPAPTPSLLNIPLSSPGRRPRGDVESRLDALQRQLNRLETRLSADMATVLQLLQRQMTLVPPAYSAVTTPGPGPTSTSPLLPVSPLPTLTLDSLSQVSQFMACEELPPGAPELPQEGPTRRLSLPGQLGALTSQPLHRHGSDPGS

[22] = Half life in human liver microsomes at 10 uM preincubated for 10 mins followed by NADPH addition by LC-MS/MS analysis; type: ADME, Microsome; conditions: liver microsomes
Aldehyde oxidase = target: T1, Aldehyde oxidase (Homo sapiens, UniProt Q06278); test: Drug metabolism in human liver S9 fraction assessed as aldehyde oxidase-mediated drug metabolism by measuring rate of parent compound decay at 1 uM measured after 90 mins by LC-MS/MS analysis; type: ADME, subcellular
T1 sequence (Q06278 whole entry): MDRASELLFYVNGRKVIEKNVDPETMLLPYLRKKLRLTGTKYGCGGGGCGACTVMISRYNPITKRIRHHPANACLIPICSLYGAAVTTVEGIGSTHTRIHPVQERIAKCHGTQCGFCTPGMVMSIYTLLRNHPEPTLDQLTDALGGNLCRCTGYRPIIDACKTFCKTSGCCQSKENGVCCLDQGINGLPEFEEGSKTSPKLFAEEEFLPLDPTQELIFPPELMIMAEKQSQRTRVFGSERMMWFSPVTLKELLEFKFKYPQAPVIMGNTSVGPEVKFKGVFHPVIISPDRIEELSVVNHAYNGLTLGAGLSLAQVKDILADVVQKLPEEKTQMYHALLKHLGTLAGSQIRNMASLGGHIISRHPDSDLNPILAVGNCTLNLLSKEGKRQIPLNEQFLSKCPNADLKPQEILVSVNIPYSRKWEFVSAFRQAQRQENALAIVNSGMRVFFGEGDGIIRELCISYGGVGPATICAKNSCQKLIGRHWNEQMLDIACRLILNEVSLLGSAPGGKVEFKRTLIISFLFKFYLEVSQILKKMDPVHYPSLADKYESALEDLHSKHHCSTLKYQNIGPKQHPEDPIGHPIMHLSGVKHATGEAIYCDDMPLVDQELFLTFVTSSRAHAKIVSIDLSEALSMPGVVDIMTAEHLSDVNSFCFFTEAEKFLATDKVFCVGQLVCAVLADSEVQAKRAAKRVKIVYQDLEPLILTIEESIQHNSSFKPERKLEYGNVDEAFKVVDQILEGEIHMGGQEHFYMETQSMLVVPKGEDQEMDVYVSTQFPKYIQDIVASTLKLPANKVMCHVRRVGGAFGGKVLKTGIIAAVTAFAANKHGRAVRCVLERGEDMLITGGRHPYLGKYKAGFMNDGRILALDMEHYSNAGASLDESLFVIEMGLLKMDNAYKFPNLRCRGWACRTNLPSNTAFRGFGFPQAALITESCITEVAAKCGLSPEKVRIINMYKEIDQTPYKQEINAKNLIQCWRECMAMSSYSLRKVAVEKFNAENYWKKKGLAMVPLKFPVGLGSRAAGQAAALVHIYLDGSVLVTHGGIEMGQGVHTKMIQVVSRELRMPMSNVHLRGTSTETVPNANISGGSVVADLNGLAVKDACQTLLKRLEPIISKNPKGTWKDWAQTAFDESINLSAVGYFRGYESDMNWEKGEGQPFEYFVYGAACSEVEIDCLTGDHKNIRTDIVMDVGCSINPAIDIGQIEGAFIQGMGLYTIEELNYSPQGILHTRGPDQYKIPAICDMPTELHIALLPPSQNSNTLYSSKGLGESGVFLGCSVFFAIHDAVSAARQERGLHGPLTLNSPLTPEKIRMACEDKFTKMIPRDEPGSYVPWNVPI

[23] = Inhibition of Toxoplasma gondii full-length C-terminal His-tagged CDPK1 G128M mutant expressed in Escherichia coli BL21(DE3)V2RpAcYc-LIC+LamP using syntide-2 peptide as substrate incubated for 20 to 40 mins by ELISA
[24] = Cytotoxicity against human SH-SY5Y cells assessed as cell growth at 20 uM measured after 72 hrs by cellTiter 96 AQueous non-radioactive cell proliferation assay relative to control; type: cell-based; conditions: read-out: Activity
[25] = Cmax in CD1 mouse at 3 mg/kg, iv or 10 mg/kg, po administered via gavage by LC-MS/MS analysis; type: ADME, organism-based; conditions: in vivo
[26] = Inhibition of Toxoplasma gondii full-length wild-type C-terminal His-tagged CDPK1 expressed in Escherichia coli BL21(DE3)V2RpAcYc-LIC+LamP using syntide-2 peptide as substrate incubated for 20 to 40 mins by ELISA
[27] = Half life in mouse liver microsomes at 10 uM preincubated for 10 mins followed by NADPH addition by LC-MS/MS analysis; type: ADME, Microsome; conditions: microsomes, 10 µM

In the case of Nc1ncnc2c1c(Oc1cc(C(F)(F)F)ccn1)nn2[C@@H]1CCCC[C@H]1O, the efflux ratio at […], 2 µM (MDR1) is reported as 1.23, the IC50 [1] is reported as > 20 µM and the EC50 (Toxoplasma gondii [2]) is reported as 0.227 µM. The bioavailability [3] was 48.9%, the CLH [4] was < 6.4 µL/min/1e6 cells and the EC50 (Toxoplasma gondii [5]) was 0.077 to 0.0775 µM. The AUC [6] was 1100 ng·h/mL, the selectivity ratio [7] was > 1000 and the fraction unbound [8] was 0.041. The Kinetic_solubility [9] was 92.73 µM, the viability at 72 h, 20 µM [10] was 126% and the viability at 72 h, 20 µM [11] was 77.3%. The Fu [12] was 24.3%, the CLint scaled at 10 µM [13] was < 8.6 mL/min/kg and the EC50 (Toxoplasma gondii [14]) was 0.0896 µM. The viability at 72 h [15] was 107%, the inhibition at 10 µM (LCK) was 45% and the viability at 72 h, 20 µM [16] was 99%. It also gave a viability at 72 h, 20 µM [17] of 100%, a Papp [18] of 21.43 ×10⁻⁶ cm/s and a t1/2 [19] of 2.17 h. For the same molecule, the Kp at 8 h [20] was 0.47, the IC50 [21] was > 30 µM and the half-life at 10 µM [22] was > 2.42 h. The Drug metabolism (Aldehyde oxidase) was < 3.2 µL/min/mg, the IC50 [23] was > 20 µM and the viability at 72 h, 20 µM [24] was 105%. For the same molecule, the Cmax [25] was 620 ng/mL, the IC50 [26] was 0.0066 µM and the t1/2 [27] was 1.1 h.
